Read-outs that look alike come from different tables or passages of the source.
Columns and labels:
[1] = test system: human colon cancer cell lines: HCT 116, SW620, LoVo, Caco-2, and HT-29; test: MTT cell viability assay, statements across the panel; format: cell-based; conditions: range over the cancer cell lines, read-out: IC50 range against colon cancer cell lines
Description: The cytotoxic activity of the 3-benzylideneflavanones, 3-benzylidenechromanones derivatives (compounds 1, 2, 3, 4, 5) and 5′-(3-methoxyphenyl)-2-phenyl-4′,5′-dihydro-4H-spiro[chromano-3,3′-pirazol]-4-one (compound 3a) was evaluated using the MTT assay (4,5-dimethylthiazol-2-yl)-2,5-diphenyltetrazoliumbromide), a colorimetric method that quantifies cell viability. […] These IC50 values were subsequently used for all experiments investigating the anticancer activity of the flavanone/chromanone derivatives in this study.
(§1) Cell viability was determined using the metabolic microplate spectrophotometric assay with Methylthiazolyl diphenyltetrazolium bromide (MTT) (Sigma-Aldrich; St. Louis, MO, USA). The MTT method belongs to metabolic tests for determining cell viability and consists of measuring the absorbance of a violet solution of formazan, a product of the reduction of a water-soluble yellow MTT by oxidoreductive enzymes (mainly mitochondrial succinate dehydrogenase) of living cells. The amount of the reaction product (water-insoluble formazan crystals) is proportional to the number of living and metabolically active cells in the sample. In the case of damaged or dead cells, formazan is formed in smaller amounts, or it is not formed.
The appropriate number of cells for a given cell line (6–8 × 10^3 cells/mL) were seeded onto colorless, sterile 96-well microplates (Nunc, Roskilde, Denmark) in the number appropriate for a given cell line. After 24 h of culture, various concentrations of the studied compounds (10^−7–10^−5 M) freshly prepared in DMSO (final concentration DMS < 0.1%) and diluted with complete culture medium were added and incubated in a CO2 incubator for 24 h. After this time, the medium was removed; the cell monolayer was washed twice with sterile PBS solution; and fresh culture medium was added to the microplate wells. After 48 h of cell culture, the MTT test was performed. A volume of 50 μL of tetrazolium salt solution (final concentration 0.05 mg/mL) was added to each microplate well. The microplate was placed for 3–4 h (depending on the cell line) in a CO2 incubator. After incubation, 100 μL of DMSO was added to the wells of the microplate to dissolve the purple formazan crystals formed in the living cell environment. The absorbance of the formazan solution, after gentle mixing, was read at a wavelength of λ = 580 nm and a reference wavelength of λ = 720 nm (Biotek Power Wave HT, Biotek Instruments, Winooski, VT, USA). The percentage of living cells was calculated by comparing the absorbance value of the tested samples with the absorbance value of the control (cells not treated with compounds). The absorbance of the control was taken as 100%. […] Moreover, cisplatin (Sigma-Aldrich, St. Louis, MO, USA) was used as a reference compound, and identical incubation conditions were used as described above.

LoVo [2] = test: Cell cycle analysis via flow cytometry (propidium iodide); format: cell-based, human; conditions: compound at IC50, 24 h, vs control
Description: (§2) The most commonly used fluorescent dyes for cell cycle analysis are fluorochromes that penetrate the cell membrane into the interior of permeabilized cells and bind stoichiometrically to DNA via intercalation, e.g., DAPI, propidium iodide (PI). The analysis is performed on cells fixed in ethanol. In this work, the cell cycle analysis was performed using the method described by Darzynkiewicz and Juan.
(§3) Cells (10 × 10^3) were seeded in 35 mm dishes and cultured in the medium for 24 h to attain the logarithmic growth phase. […] Subsequently, cells were trypsinized and centrifuged for 10 min at 400× g at 4 °C. The cell suspension in 100 μL of PBS was fixed in 1 mL of 70% ethanol (−20 °C) and stored at this temperature until analysis. Immediately before analysis, the ethanol-fixed cell suspension was centrifuged at 10,000 rpm for 10 min at 4 °C. The pellet was washed with cold (4 °C) PBS to remove residual ethanol, and the cell suspension was centrifuged again under the same conditions. A volume of 300 μL of PBS containing 4 mg/mL propidium iodide (final concentration 75 μM) and 1 mg/mL RNAse A (final concentration 20 μg/mL) was added to the cell pellet and incubated for at least 30 min at 37 °C in the dark. Stained cells were analyzed using a flow cytometer (Becton Dickinson, Franklin Lakes, NJ, USA), counting 10,000 cells in each sample. Data were analyzed using FlowJo 10.10 software (FlowJo, Williamson Way Ashland, OR, USA).

SW620 [3] = test: as above; format: cell-based, human; conditions: compound at IC50, 24 h; for Increase in the G2/M phase cell fraction: vs control
Description: as §2, §3

HCT 116 = test: as above; format: cell-based, human; conditions: compound at IC50, 24 h, vs control
Description: as §2, §3

LoVo [4] = test: MTT cell viability assay; format: cell-based; conditions: Homo sapiens, 24 h incubation with compound, mean ± SD of three experiments, read-out: Cytotoxic effect, IC50
Description: (§4) The cytotoxic activity of the 3-benzylideneflavanones, 3-benzylidenechromanones derivatives (compounds 1, 2, 3, 4, 5) and 5′-(3-methoxyphenyl)-2-phenyl-4′,5′-dihydro-4H-spiro[chromano-3,3′-pirazol]-4-one (compound 3a) was evaluated using the MTT assay (4,5-dimethylthiazol-2-yl)-2,5-diphenyltetrazoliumbromide), a colorimetric method that quantifies cell viability.
as §1
(§5) The appropriate number of cells for a given cell line (6–8 × 10^3 cells/mL) were seeded onto colorless, sterile 96-well microplates (Nunc, Roskilde, Denmark) in the number appropriate for a given cell line. After 24 h of culture, various concentrations of the studied compounds (10^−7–10^−5 M) freshly prepared in DMSO (final concentration DMS < 0.1%) and diluted with complete culture medium were added and incubated in a CO2 incubator for 24 h. After this time, the medium was removed; the cell monolayer was washed twice with sterile PBS solution; and fresh culture medium was added to the microplate wells. After 48 h of cell culture, the MTT test was performed. A volume of 50 μL of tetrazolium salt solution (final concentration 0.05 mg/mL) was added to each microplate well. The microplate was placed for 3–4 h (depending on the cell line) in a CO2 incubator. After incubation, 100 μL of DMSO was added to the wells of the microplate to dissolve the purple formazan crystals formed in the living cell environment. The absorbance of the formazan solution, after gentle mixing, was read at a wavelength of λ = 580 nm and a reference wavelength of λ = 720 nm (Biotek Power Wave HT, Biotek Instruments, Winooski, VT, USA). The percentage of living cells was calculated by comparing the absorbance value of the tested samples with the absorbance value of the control (cells not treated with compounds). The absorbance of the control was taken as 100%.

SW620 [5] = test: MTT cell viability assay; format: cell-based; conditions: Homo sapiens, SW-620, 24 h incubation with compound, mean ± SD of three experiments, read-out: Cytotoxic effect, IC50
Description: as §4, §1, §5

Row | SMILES | IC50 ([1]; Homo sapiens) [µM] | Increase in the G2/M phase cell percentage (LoVo [2]) | Increase in the G2/M phase cell fraction (SW620 [3]) | Increase in the G2/M phase cell fraction (HCT 116) | IC50 (LoVo [4]) [µM] | IC50 (SW620 [5]) [µM] | IC50 [1] [µM] | Change in cell cycle parameters or G2/M phase arrest (SW620 [3])
1 | O=C1/C(=C/c2ccccc2)C(c2ccccc2)Oc2ccccc21 (stereo not shown) [Compound 5] | 8 to 30 | approximately 20% | ~13% | 20% | 19.4 ± 2.1 | 16.7 ± 3.1 |  | 
2 | COc1cccc(/C=C2/C(=O)c3ccccc3OC2c2ccccc2)c1 (stereo not shown) [Compound 3] | 8 to 30 | approximately 35% | approximately 20% | approximately 30% | 23.2 ± 1.4 | 12.4 ± 2.1 |  | 
3 | O=C1/C(=C/c2ccccc2)COc2ccccc21 [Compound 1] | 8 to 30 | approximately 10% |  | approximately 10% | 12.6 ± 1.5 | 8.1 ± 1.7 | 8 to 20 | no statistically significant changes

— publication PMC11641365, “Evaluation of In Vitro Biological Activity of Flavanone/Chromanone Derivatives: Molecular Analysis of Anticancer Mechanisms in Colorectal Cancer” (International Journal of Molecular Sciences, 2024)
